The text below walks through data of US12643882B2, “Inhibitors of human respiratory syncytial virus and metapneumovirus” (priority 2022, dated 2026).

Like-named read-outs stand apart in the source and are kept apart here.

For assay [1], the system named is RSV-A2-GFP virus. In words: microbe, parasite or virus in culture. It counts as cell-based, Human Respiratory Syncytial Virus. In outline:
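IC50 (GFP-expressing cell counts by Acumen imaging) and CC50 (same-well CellTiter-Glo) were obtained by 4-parameter logistic fitting. Compounds were tested in 10-point 3-fold series for 96 h at 37° C, 5% CO2. Thawed Calu-1 ARF cells were infected at MOI 1.2 with GFP-reporter RSV-A2 in 2% FBS DMEM.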

Assay [2] has as its system hMPV-GFP virus. In words: microbe, parasite or virus in culture. The assay is classed as cell-based, human metapneumovirus. An outline of the steps: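 Antiviral IC50 was derived from imaging counts of GFP-expressing cells, with CC50 from a same-well CellTiter-Glo read, both by 4-parameter logistic fitting. VERO cells plus hMPV-GFP (MOI 1.25) were exposed 48 h at 37 °C to 10-point 3-fold compound dilutions (typical final 40,300–2 nM).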

The mark [3] stands for this setting: Calu-1 cells infected with RSV-A2-GFP, 96 hrs, GFP-expressing cells counted, read-out: RSV EC50.
[4] abbreviates: VERO cells infected with hMPV-GFP, 48 hrs, GFP-expressing cells counted, read-out: hMPV EC50.
[5] abbreviates: human respiratory syncytial virus, Calu-1, 96 h, read-out: RSV EC50, Calu-1 cells infected with RSV-A2-GFP, 96 hrs, GFP-expressing cells counted.
[6] abbreviates: human metapneumovirus, Vero, 48 h, read-out: hMPV EC50, VERO cells infected with hMPV-GFP, 48 hrs, GFP-expressing cells counted.
Where [7] appears, read: read-out: hMPV EC50, VERO cells infected with hMPV-GFP, 48 hrs, GFP-expressing cells counted.
Setting [8] is: read-out: RSV EC50, Calu-1 cells infected with RSV-A2-GFP, 96 hrs, GFP-expressing cells counted.

By EC50 is commonly meant the concentration at which the effect is half-maximal. Consider `CC(O)c1nn(-c2ncccn2)cc1C(=O)N1C[C@@H]2C(Oc3cc(C(C)(C)N)cc(-c4ccc(F)c(F)c4)n3)[C@@H]2C1` (single isomer, unassigned; enantiomer 1) [Example 96A], for which the 50% effective concentration (EC50) in assay [1] (setting [3]) is less than 0.01 µM; in assay [2] (setting [4]), greater than 0.1 µM.

Turning to `Cc1nc(-c2ncccn2)sc1C(=O)N1C[C@@H]2[C@H](C1)[C@H]2Nc1cc(C(C)(C)N)cc(-c2ccc(F)cc2)n1` [Example 7, ((1R,5S,6s)-6-((4-(2-aminopropan-2-yl)-6-(4-fluorophenyl)pyridin-2-yl)amino)-3-azabicyclo[3.1.0]hexan-3-yl)(4-methyl-2-(pyrimidin-2-yl)thiazol-5-yl)methanone], the EC50 was less than 0.01 µM in assay [1] (setting [5]) and greater than 0.1 µM in assay [2] (setting [6]).

As to `CC(C)(N)c1cc(O[C@H]2[C@@H]3CN(C(=O)c4cn(-c5ncccn5)nc4CC(F)F)C[C@@H]32)nc(-c2ccc(F)cc2)c1` [Example 132, ((1R,5S,6s)-6-((4-(2-aminopropan-2-yl)-6-(4-fluorophenyl)pyridin-2-yl)oxy)-3-azabicyclo[3.1.0]hexan-3-yl)(3-(2,2-difluoroethyl)-1-(pyrimidin-2-yl)-1H-pyrazol-4-yl)methanone], the EC50 in assay [1] (setting [5]) was less than 0.01 µM; in assay [2] (setting [6]) it was greater than 0.1 µM.

As to `Cc1nc(-c2ncccn2)sc1C(=O)N1C[C@@H]2C(Oc3cc(C(C)(N)CO)cc(-c4ccc(F)cc4)n3)[C@@H]2C1` (single isomer, unassigned; enantiomer 2) [Example 113B], the values for the EC50 in assay [1] (setting [3]) and in assay [2] (setting [4]) were less than 0.01 µM and greater than 0.1 µM, respectively.

In the case of `Cn1nc(-c2ncccn2)cc1C(=O)N1C[C@@H]2[C@H](C1)[C@H]2Oc1cc(C(C)(C)N)cc(-c2ccc(F)cc2)n1` [Example 52, ((1R,5S,6s)-6-((4-(2-aminopropan-2-yl)-6-(4-fluorophenyl)pyridin-2-yl)oxy)-3-azabicyclo[3.1.0]hexan-3-yl)(1-methyl-3-(pyrimidin-2-yl)-1H-pyrazol-5-yl)methanone], the EC50 is less than 0.01 µM in assay [1] (setting [5]) and greater than 0.1 µM in assay [2] (setting [6]).

Take `Cc1nn(-c2ncccn2)cc1C(=O)N1C[C@H]2[C@H](Oc3cc(C(C)(C)N)cc(-c4ccc(C(F)(F)F)cc4)n3)[C@@]2(C)C1` (single isomer, unassigned; enantiomer 1) [Example 111A]: the concentration giving a half-maximal response (EC50) was less than 0.01 µM in assay [1] (setting [5]) and greater than 0.1 µM in assay [2] (setting [7]).

As for `Cc1nc(-c2ncccn2)sc1C(=O)N1C[C@@H]2[C@H](C1)[C@H]2Oc1cc(C(C)(C)N)cc(Cc2ccc(F)cc2)n1` [Example 126, ((1R,5S,6s)-6-((4-(2-aminopropan-2-yl)-6-(4-fluorobenzyl)pyridin-2-yl)oxy)-3-azabicyclo[3.1.0]hexan-3-yl)(4-methyl-2-(pyrimidin-2-yl)thiazol-5-yl)methanone], the EC50 in assay [1] (setting [5]) is less than 0.01 µM; in assay [2] (setting [6]), greater than 0.1 µM.

With `Cc1nn(-c2ncccn2)cc1C(=O)N1C[C@H]2[C@H](Oc3cc(C(C)(C)N)cc(-c4ccc(F)c(F)c4)n3)[C@@]2(C)C1` (single isomer, unassigned; enantiomer 2) [Example 106B], the concentration for a half-maximal effect (EC50) was less than 0.01 µM in assay [1] (setting [8]) and 0.01 to 0.1 µM in assay [2] (setting [7]).

Turning to `Cc1nn(-c2ncccn2)cc1C(=O)N1C[C@@H]2[C@H](C1)[C@H]2Oc1cc(C(C)(C)N)cc(-c2ccc(C(F)(F)F)nc2)n1` [Example 87, ((1R,5S,6s)-6-((4-(2-aminopropan-2-yl)-6′-(trifluoromethyl)-[2,3′-bipyridin]-6-yl)oxy)-3-azabicyclo[3.1.0]hexan-3-yl)(3-methyl-1-(pyrimidin-2-yl)-1H-pyrazol-4-yl)methanone], the values for the concentration for a half-maximal effect (EC50) in assay [1] (setting [3]) and in assay [2] (setting [4]) were less than 0.01 µM and greater than 0.1 µM, respectively.

On to `COc1nn(-c2ncccn2)cc1C(=O)N1C[C@@H]2[C@H](C1)[C@H]2Oc1cc(C(C)(C)N)c(Cl)c(-c2ccc(F)cc2)n1` [Example 121, ((1R,5S,6s)-6-((4-(2-aminopropan-2-yl)-5-chloro-6-(4-fluorophenyl)pyridin-2-yl)oxy)-3-azabicyclo[3.1.0]hexan-3-yl)(3-methoxy-1-(pyrimidin-2-yl)-1H-pyrazol-4-yl)methanone], for which the EC50 in assay [1] (setting [3]) was less than 0.01 µM; in assay [2] (setting [4]), greater than 0.1 µM.

In the case of `COc1nn(-c2ncccn2)cc1C(=O)N1C[C@@H]2[C@H](C1)[C@H]2Oc1cc(C(C)(C)N)cc(-c2ccc(F)cc2)n1` [Example 62, ((1R,5S,6s)-6-((4-(2-aminopropan-2-yl)-6-(4-fluorophenyl)pyridin-2-yl)oxy)-3-azabicyclo[3.1.0]hexan-3-yl)(3-methoxy-1-(pyrimidin-2-yl)-1H-pyrazol-4-yl)methanone], the results for the concentration for a half-maximal effect (EC50) in assay [1] (setting [5]) and in assay [2] (setting [6]) were less than 0.01 µM and greater than 0.1 µM, respectively.

For `Cc1nc(-c2ncccn2)sc1C(=O)N1C[C@@H]2[C@H](C1)[C@H]2Oc1cc(C(C)(C)N)cc(-c2cc(F)c(F)c(F)c2)n1` [Example 13, ((1R,5S,6s)-6-((4-(2-aminopropan-2-yl)-6-(3,4,5-trifluorophenyl)pyridin-2-yl)oxy)-3-azabicyclo[3.1.0]hexan-3-yl)(4-methyl-2-(pyrimidin-2-yl)thiazol-5-yl)methanone], the EC50 in assay [1] (setting [5]) was less than 0.01 µM; in assay [2] (setting [6]), 0.01 to 0.1 µM.

Consider `Cc1nn(-c2ncccn2)cc1C(=O)N1C[C@H]2[C@H](Oc3cc(C(C)(C)N)cc(-c4ccc(C(F)(F)F)cc4)n3)[C@@]2(C)C1` (single isomer, unassigned; enantiomer 2) [Example 111B], for which the EC50 in assay [1] (setting [8]) is less than 0.01 µM; in assay [2] (setting [7]), 0.01 to 0.1 µM.

With `Cc1nn(-c2ncccn2)cc1C(=O)N1C[C@@H]2[C@H](C1)[C@H]2Oc1cc(C(C)(C)N)cc(-c2ccc(F)c(Cl)c2)n1` [Example 83, ((1R,5S,6s)-6-((4-(2-aminopropan-2-yl)-6-(3-chloro-4-fluorophenyl)pyridin-2-yl)oxy)-3-azabicyclo[3.1.0]hexan-3-yl)(3-methyl-1-(pyrimidin-2-yl)-1H-pyrazol-4-yl)methanone], the results for the EC50 in assay [1] (setting [3]) and in assay [2] (setting [4]) were less than 0.01 µM and greater than 0.1 µM, respectively.

Regarding `Cc1nc(-c2ncccn2)sc1C(=O)N1C[C@@H]2[C@H](C1)[C@H]2Oc1cc(C(C)(C)N)cc(-c2ccc(F)c(Cl)c2)n1` [Example 17, ((1R,5S,6s)-6-((4-(2-aminopropan-2-yl)-6-(3-chloro-4-fluorophenyl)pyridin-2-yl)oxy)-3-azabicyclo[3.1.0]hexan-3-yl)(4-methyl-2-(pyrimidin-2-yl)thiazol-5-yl)methanone], the concentration giving a half-maximal response (EC50) was less than 0.01 µM in assay [1] (setting [3]) and 0.01 to 0.1 µM in assay [2] (setting [4]).

Take `Cc1ccnc(-n2cc(C(=O)N3C[C@@H]4[C@H](C3)[C@H]4Oc3cc(C(C)(C)N)cc(-c4ccc(F)cc4)n3)c(C)n2)n1` [Example 72, ((1R,5S,6s)-6-((4-(2-aminopropan-2-yl)-6-(4-fluorophenyl)pyridin-2-yl)oxy)-3-azabicyclo[3.1.0]hexan-3-yl)(3-methyl-1-(4-methylpyrimidin-2-yl)-1H-pyrazol-4-yl)methanone]: the half-maximal effective concentration (EC50) in assay [1] (setting [3]) is less than 0.01 µM; in assay [2] (setting [4]) it was greater than 0.1 µM.

With `Cc1nn(-c2ncccn2)cc1C(=O)N1C[C@@H]2[C@H](C1)[C@H]2Oc1cc(C(C)(C)N)cc(NC(C)C2CCCC2)n1` (stereo partly drawn) [Example 128A, ent-((1R,5S,6s)-6-((4-(2-aminopropan-2-yl)-6-((1-cyclopentylethyl)amino)pyridin-2-yl)oxy)-3-azabicyclo[3.1.0]hexan-3-yl)(3-methyl-1-(pyrimidin-2-yl)-1H-pyrazol-4-yl)methanone], the EC50 in assay [1] (setting [3]) is less than 0.01 µM; in assay [2] (setting [4]) it was greater than 0.1 µM.

In the case of `Cc1nn(-c2ncccn2)cc1C(=O)N1C[C@H]2[C@H](Oc3cc(C(C)(C)N)cc(-c4ccc(F)cc4)n3)[C@@]2(C)C1` (single isomer, unassigned; enantiomer 1) [Example 107A], the EC50 was less than 0.01 µM in assay [1] (setting [5]) and greater than 0.1 µM in assay [2] (setting [6]).

On to `Cn1nc(-c2ncccn2)cc1C(=O)N1C[C@H]2[C@H](Oc3cc(C(C)(C)N)cc(-c4ccc(F)cc4F)n3)[C@@]2(C)C1` (single isomer, unassigned; enantiomer 2) [Example 108B], for which the EC50 in assay [1] (setting [8]) is less than 0.01 µM; in assay [2] (setting [7]), greater than 0.1 µM.

For the compound `CC(C)(N)c1cc(O[C@H]2[C@@H]3CN(C(=O)c4cn(-c5ncccn5)nc4C(F)(F)F)C[C@@H]32)nc(-c2ccc(F)c(F)c2)c1` [Example 92, ((1R,5S,6s)-6-((4-(2-aminopropan-2-yl)-6-(3,4-difluorophenyl)pyridin-2-yl)oxy)-3-azabicyclo[3.1.0]hexan-3-yl)(1-(pyrimidin-2-yl)-3-(trifluoromethyl)-1H-pyrazol-4-yl)methanone], the EC50 in assay [1] (setting [3]) is less than 0.01 µM; in assay [2] (setting [4]), greater than 0.1 µM.

As for `Cc1nc(-c2ncccn2)sc1C(=O)N1C[C@@H]2[C@H](C1)[C@H]2Oc1cc(C(C)(C)N)cc(-c2ccc(C3CC3)cc2)n1` [Example 22, ((1R,5S,6s)-6-((4-(2-aminopropan-2-yl)-6-(4-cyclopropylphenyl)pyridin-2-yl)oxy)-3-azabicyclo[3.1.0]hexan-3-yl)(4-methyl-2-(pyrimidin-2-yl)thiazol-5-yl)methanone], the figures for the concentration giving a half-maximal response (EC50) in assay [1] (setting [3]) and in assay [2] (setting [4]) were less than 0.01 µM and greater than 0.1 µM, respectively.
